35 molecules from article PMC7316778 (Nature Communications, 2020) can be followed below.

Test [1] has as its target T1, FES^S700C (Homo sapiens, UniProt P07332, S700C). The test is described as follows: In vitro TR-FRET kinase assay. It is filed as biochemical. The arrangement: human FES cDNA encoding residues 448–822 or human FER cDNA encoding residues 448–820 was amplified by PCR; made in house; host or cells: E. coli BL21(DE3), co-expressing YopH phosphatase. To be noted: for Apparent fold selectivity: IC50 on FES^WT divided by IC50 on FES^S700C; for IC50: read-out: pIC50 FES^S700C (converted); for Residual activity (%): FES S700C, mean, n=3. For orientation: TR-FRET usually uses a lanthanide donor and a delayed reading to cut background.

Test [2] deals with T1, FES^S700C. The test is described as follows: PamChip microarray peptide phosphorylation. It counts as biochemical. On the set-up: human FES cDNA encoding residues 448–822 or human FER cDNA encoding residues 448–820 was amplified by PCR; made in house; host or cells: E. coli BL21(DE3), co-expressing YopH phosphatase. To be noted: peptide substrate phosphorylated by FES - S700C.

T1 sequence (P07332 448-822 S700C): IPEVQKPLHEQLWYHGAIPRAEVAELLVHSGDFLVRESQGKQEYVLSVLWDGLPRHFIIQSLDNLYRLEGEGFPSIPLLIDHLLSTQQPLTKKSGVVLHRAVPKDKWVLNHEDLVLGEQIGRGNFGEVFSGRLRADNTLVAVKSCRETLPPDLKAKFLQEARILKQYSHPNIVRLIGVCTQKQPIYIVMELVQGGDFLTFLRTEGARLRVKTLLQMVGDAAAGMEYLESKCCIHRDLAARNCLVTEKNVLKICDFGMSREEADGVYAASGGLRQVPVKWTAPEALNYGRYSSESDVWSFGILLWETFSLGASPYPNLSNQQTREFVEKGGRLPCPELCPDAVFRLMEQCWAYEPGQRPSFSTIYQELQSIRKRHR

One may read the Km as the substrate concentration at which the rate is half of its maximum. `Nc1ncnc2c1ncn2[C@@H]1O[C@H](COP(=O)(O)OP(=O)(O)OP(=O)(O)O)[C@@H](O)[C@H]1O` [ATP]: the Km at FES^S700C [1] (FES^S700C, TR-FRET, 60 min, read-out: ATP KM) was determined as 0.79 µM.

Consider `COc1ccccc1Nc1ncc(Cl)c(Nc2ccccc2S(=O)(=O)C(C)C)n1` [Compound 2], for which the Apparent fold selectivity at FES^S700C [1] amounted to 2.5 fold. The IC50 at FES^S700C [1] (TR-FRET assay, 5 µM ATP, n = 3) was 15.8 nM.

For `C=CC(=O)Nc1ccccc1Nc1nc(Nc2ccccc2OC)ncc1Cl` [Compound 4], at FES^S700C [1], the Apparent fold selectivity is 238 fold. Moreover, at FES^S700C [1] (TR-FRET assay, 5 µM ATP, n = 3), the IC50 was 3.98 nM.

Regarding `CCC(=O)Nc1ccccc1Nc1nc(Nc2ccccc2OC)ncc1Cl` [Compound 5], at FES^S700C [1] (TR-FRET assay, 5 µM ATP, n = 3), the “pIC50 FES^S700C” value was “low inhibitory potency” and the IC50 was 6310 nM.

For the molecule `COc1ccccc1Nc1ncc(Cl)c(Nc2ccccc2S(=O)(=O)C(C)C)n1` [Supplementary Figure 1c], the “Residual activity (%)” value is 0.2233% on FES^S700C [1] (log[inhibitor] (M) = -5); 0.2556% on FES^S700C [1] (log[inhibitor] (M) = -5.52288); -0.06933% on FES^S700C [1] (log[inhibitor] (M) = -6); 4.851% at FES^S700C [1] (log[inhibitor] (M) = -6.52288); 14.3041% at FES^S700C [1] (log[inhibitor] (M) = -7); 33.9502% at FES^S700C [1] (log[inhibitor] (M) = -7.52288). The “Residual activity (%)” value at FES^S700C [1] (log[inhibitor] (M) = -8) stood at 66.7428%; on FES^S700C [1] (log[inhibitor] (M) = -8.52288) it was 88.3714%; at FES^S700C [1] (log[inhibitor] (M) = -9), 94.1217%; at FES^S700C [1] (log[inhibitor] (M) = -9.52288), 96.7458%; on FES^S700C [1] (log[inhibitor] (M) = -10), 89.1056%; at FES^S700C [1] (log[inhibitor] (M) = -10.5229), 99.8276%. Besides, the “Residual activity (%)” value on FES^S700C [1] (log[inhibitor] (M) = -11) is 106.567%.

Consider `C=CC(=O)Nc1cccc(Nc2nc(Nc3ccccc3OC)ncc2Cl)c1` [Supplementary Figure 1d], for which the “Residual activity (%)” value on FES^S700C [1] (log[inhibitor] (M) = -5) is -0.2497%; on FES^S700C [1] (log[inhibitor] (M) = -5.52288), -0.5097%; on FES^S700C [1] (log[inhibitor] (M) = -6) it was -0.8205%; on FES^S700C [1] (log[inhibitor] (M) = -6.52288), -0.4059%; at FES^S700C [1] (log[inhibitor] (M) = -7) it was -0.7051%; on FES^S700C [1] (log[inhibitor] (M) = -7.52288), -0.1368%. For the same molecule, the “Residual activity (%)” value stood at 11.6016% at FES^S700C [1] (log[inhibitor] (M) = -8); 70.8547% on FES^S700C [1] (log[inhibitor] (M) = -8.52288); 85.0509% at FES^S700C [1] (log[inhibitor] (M) = -9); 98.0879% at FES^S700C [1] (log[inhibitor] (M) = -9.52288); 85.4934% at FES^S700C [1] (log[inhibitor] (M) = -10); 94.4068% on FES^S700C [1] (log[inhibitor] (M) = -10.5229). The “Residual activity (%)” value on FES^S700C [1] (log[inhibitor] (M) = -11) is recorded as 106.971%.

As to `C=CC(=O)Nc1ccccc1Nc1nc(Nc2ccccc2OC)ncc1Cl` [Supplementary Figure 1e], the “Residual activity (%)” value at FES^S700C [1] (log[inhibitor] (M) = -5) came to 5.657%; on FES^S700C [1] (log[inhibitor] (M) = -5.52288), 10.8053%; on FES^S700C [1] (log[inhibitor] (M) = -6) it was 28.2387%; on FES^S700C [1] (log[inhibitor] (M) = -6.52288) it was 69.3014%; on FES^S700C [1] (log[inhibitor] (M) = -7), 75.3706%; at FES^S700C [1] (log[inhibitor] (M) = -7.52288), 96.1185%. Further, the “Residual activity (%)” value is given as 98.0581% on FES^S700C [1] (log[inhibitor] (M) = -8); 106.349% on FES^S700C [1] (log[inhibitor] (M) = -8.52288); 109.01% on FES^S700C [1] (log[inhibitor] (M) = -9); 116.606% at FES^S700C [1] (log[inhibitor] (M) = -9.52288); 111.768% at FES^S700C [1] (log[inhibitor] (M) = -10); 102.117% on FES^S700C [1] (log[inhibitor] (M) = -10.5229). For the same molecule, the “Residual activity (%)” value at FES^S700C [1] (log[inhibitor] (M) = -11) is listed as 99.3612%.

For the molecule `CCC(=O)Nc1ccccc1Nc1nc(Nc2ccccc2OC)ncc1Cl` [Supplementary Figure 1f], the “Residual activity (%)” value amounted to 51.0323% at FES^S700C [1] (log[inhibitor] (M) = -5); 52.0081% at FES^S700C [1] (log[inhibitor] (M) = -5.52288); 80.9285% on FES^S700C [1] (log[inhibitor] (M) = -6); 101.29% on FES^S700C [1] (log[inhibitor] (M) = -6.52288); 99.7119% on FES^S700C [1] (log[inhibitor] (M) = -7); 103.019% at FES^S700C [1] (log[inhibitor] (M) = -7.52288). The “Residual activity (%)” value on FES^S700C [1] (log[inhibitor] (M) = -8) came to 101.749%.

Turning to “AMPE_5_17 (EREGSKRYCIQTK; UniProt Q07075 5-17, looked up, fragment)”, the “Relative phosphorylation (% of highest signal)” value with FES^S700C [2] is reported as -0.5 % of highest signal.

For ART_004_EAIYAAPFAKKKXC, the “Relative phosphorylation (% of highest signal)” value with FES^S700C [2] was 8.3 % of highest signal.

As for “DDR1_506_518 (LLLSNPAYRLLLA; UniProt Q08345 506-518, looked up, fragment)”, in the test with FES^S700C [2], the “Relative phosphorylation (% of highest signal)” value is reported as -0.9 % of highest signal.

Turning to “EFS_246_258_Y253F (GGTDEGIFDVPLL; UniProt O43281 246-258, looked up, fragment Y253F)”, the “Relative phosphorylation (% of highest signal)” value in the test with FES^S700C [2] is given as -1.4 % of highest signal.

Regarding “EPHA2_581_593 (QLKPLKTYVDPHT; UniProt P29317 581-593, looked up, fragment)”, in the test with FES^S700C [2], the “Relative phosphorylation (% of highest signal)” value was 0.144 % of highest signal.

For the molecule “EPHA4_921_933 (QAIKMDRYKDNFT; UniProt P54764 921-933, looked up, fragment)”, the “Relative phosphorylation (% of highest signal)” value with FES^S700C [2] is -0.7 % of highest signal.

Turning to “EPOR_361_373 (SEHAQDTYLVLDK; UniProt P19235 361-373, looked up, fragment)”, the “Relative phosphorylation (% of highest signal)” value with FES^S700C [2] is listed as 5.7 % of highest signal.

As for “MBP_259_271 (FGYGGRASDYKSA; UniProt P02686 259-271, looked up, fragment)”, in the test with FES^S700C [2], the “Relative phosphorylation (% of highest signal)” value was -0.258 % of highest signal.

As to “MBP_263_275 (GRASDYKSAHKGF; UniProt P02686 263-275, looked up, fragment)”, in the test with FES^S700C [2], the “Relative phosphorylation (% of highest signal)” value is -0.5 % of highest signal.

In the case of “MK01_198_210 (IMLNSKGYTKSID; UniProt P28482 198-210, looked up, fragment)”, in the test with FES^S700C [2], the “Relative phosphorylation (% of highest signal)” value was -1.1 % of highest signal.

With “NPT2A_501_513 (AKALGKRTAKYRW; UniProt Q06495 501-513, looked up, fragment)”, in the test with FES^S700C [2], the “Relative phosphorylation (% of highest signal)” value is reported as 0.557 % of highest signal.

On to “NTRK2_509_521 (PVIENPQYFGITN; UniProt Q16620 509-521, looked up, fragment)”, for which, in the test with FES^S700C [2], the “Relative phosphorylation (% of highest signal)” value is -1.0 % of highest signal.

As for “ODBA_340_352_D340K (KDSSAYRSVDEVN; UniProt P12694 340-352, looked up, variant D340K)”, the “Relative phosphorylation (% of highest signal)” value with FES^S700C [2] was -0.7 % of highest signal.

Take “PERI_458_470 (QRSELDKSSAHSY; UniProt P41219 458-470, looked up, fragment)”: the “Relative phosphorylation (% of highest signal)” value with FES^S700C [2] is recorded as -1.0 % of highest signal.

Turning to “STA5A_687_699 (LAKAVDGYVKPQI; UniProt P42229 687-699, looked up, fragment)”, the “Relative phosphorylation (% of highest signal)” value in the test with FES^S700C [2] is on record as -0.9 % of highest signal.

As to “STAT1_694_706 (DGPKGTGYIKTEL; UniProt P42224 694-706, looked up, fragment)”, the “Relative phosphorylation (% of highest signal)” value in the test with FES^S700C [2] is -0.9 % of highest signal.

Take “STAT4_686_698 (TERGDKGYVPSVF; UniProt Q14765 686-698, looked up, fragment)”: in the test with FES^S700C [2], the “Relative phosphorylation (% of highest signal)” value is given as -0.317 % of highest signal.

As to “STAT6_634_646 (MGKDGRGYVPATI; UniProt P42226 634-646, looked up, fragment)”, the “Relative phosphorylation (% of highest signal)” value with FES^S700C [2] is reported as -0.6 % of highest signal.

Regarding “VGFR1_1046_1058_Y1048F (DIFKNPDYVRKGD; UniProt P17948 1046-1058, looked up, variant Y1048F)”, in the test with FES^S700C [2], the “Relative phosphorylation (% of highest signal)” value is on record as -0.9 % of highest signal.

In the case of “VGFR1_1049_1061 (KNPDYVRKGDTRL; UniProt P17948 1049-1061, looked up, fragment)”, in the test with FES^S700C [2], the “Relative phosphorylation (% of highest signal)” value is reported as -0.7 % of highest signal.

As to “VGFR1_1162_1174 (VQQDGKDYIPINA; UniProt P17948 1162-1174, looked up, fragment)”, the “Relative phosphorylation (% of highest signal)” value with FES^S700C [2] was 4.4 % of highest signal.

On to “VGFR1_1206_1218 (GSSDDVRYVNAFK; UniProt P17948 1206-1218, looked up, fragment)”, for which the “Relative phosphorylation (% of highest signal)” value in the test with FES^S700C [2] is on record as 0.24 % of highest signal.

Consider “VGFR1_1235_1247 (ATSMFDDYQGDSS; UniProt P17948 1235-1247, looked up, fragment)”, for which the “Relative phosphorylation (% of highest signal)” value with FES^S700C [2] was -0.074 % of highest signal.

As for “VGFR1_1320_1332_C1320K/C1321K (KKSPPPDYNSVVL; UniProt P17948 1320-1332, looked up, variant C1320K C1321K)”, the “Relative phosphorylation (% of highest signal)” value in the test with FES^S700C [2] is given as 4.5 % of highest signal.

For the molecule “VGFR2_944_956 (RFRQGKDYVGAIP; UniProt P35968 944-956, looked up, fragment)”, the “Relative phosphorylation (% of highest signal)” value with FES^S700C [2] is 1.4 % of highest signal.

Consider “VGFR2_989_1001 (EEAPEDLYKDFLT; UniProt P35968 989-1001, looked up, fragment)”, for which, in the test with FES^S700C [2], the “Relative phosphorylation (% of highest signal)” value is 14.2 % of highest signal.

As for “VGFR2_1046_1058 (DFGLARDIYKDPD; UniProt P35968 1046-1058, looked up, fragment)”, the “Relative phosphorylation (% of highest signal)” value with FES^S700C [2] was 2.1 % of highest signal.
